What all share (type): cell-based
The target in one assay is T1, Agam\Orco (Anopheles gambiae, UniProt Q7QCC7).
T1 sequence (Q7QCC7 1-478): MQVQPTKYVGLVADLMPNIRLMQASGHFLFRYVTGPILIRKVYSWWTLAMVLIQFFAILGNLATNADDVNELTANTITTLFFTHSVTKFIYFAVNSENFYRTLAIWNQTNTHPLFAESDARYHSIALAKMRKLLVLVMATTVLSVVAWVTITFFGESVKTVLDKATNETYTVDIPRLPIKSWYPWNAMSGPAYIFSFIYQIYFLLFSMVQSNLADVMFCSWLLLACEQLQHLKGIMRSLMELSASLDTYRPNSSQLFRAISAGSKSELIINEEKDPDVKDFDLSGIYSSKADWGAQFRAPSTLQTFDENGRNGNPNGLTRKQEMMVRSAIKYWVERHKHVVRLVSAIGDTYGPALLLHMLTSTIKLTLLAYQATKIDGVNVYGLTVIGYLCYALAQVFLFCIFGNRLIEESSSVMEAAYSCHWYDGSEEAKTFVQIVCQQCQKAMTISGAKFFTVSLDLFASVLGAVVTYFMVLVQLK
Description: Antagonism of OLC12 activation of Orco in Xenopus oocytes. As to conditions: 30µM OLC12, 10µM tryptamine. The procedure:
(§1) Follicle cells were removed by treatment with collagenase B (Boehringer Mannheim) for 2 hours at room temperature. Capped cRNA encoding each OR subunit was generated using mMessage mMachine kits (Ambion). For heteromeric ORs, 25 ng of cRNA encoding each OR subunit was injected into Stage V-VI Xenopus oocytes. For expression of Orco homomers, 50 ng of cRNA was injected. Oocytes were incubated at 18°C in Barth's saline (in mM: 88 NaCl, 1 KCl, 2.4 NaHCO 3, 0.3 CaNO 3, 0.41 CaCl 2, 0.82 MgSO 4, 15 HEPES, pH 7.6, and 150µg/ml ceftazidime) for 2–5 days prior to electrophysiological recording.
(§2) Odorant and Orco ligand induced currents were recorded under two-electrode voltage clamp, using an automated parallel electrophysiology system (OpusExpress 6000A, Molecular Devices). Oocytes were perfused with ND96 (in mM: 96 NaCl, 2 KCl, 1 CaCl 2, 1 MgCl 2, 5 HEPES, pH 7.5). Orco ligands were prepared as 50 or 100 mM stock solutions in DMSO and then diluted into ND96 on the day of the experiment. Odorants were prepared as 100 mM stock solutions in DMSO and then diluted into ND96. Unless otherwise noted, applications were for 60 sec at a flow rate of 1.0 ml/min, with extensive washing in ND96 at 4.6 ml/min between applications. Micropipettes were filled with 3 M KCl and had resistances of 0.2–2.0 MΩ. The holding potential was -70 mV. […]

For another assay, the target named is T2, Dmel\Orco (Drosophila melanogaster, UniProt Q9VNB5).
T2 sequence (Q9VNB5 1-486): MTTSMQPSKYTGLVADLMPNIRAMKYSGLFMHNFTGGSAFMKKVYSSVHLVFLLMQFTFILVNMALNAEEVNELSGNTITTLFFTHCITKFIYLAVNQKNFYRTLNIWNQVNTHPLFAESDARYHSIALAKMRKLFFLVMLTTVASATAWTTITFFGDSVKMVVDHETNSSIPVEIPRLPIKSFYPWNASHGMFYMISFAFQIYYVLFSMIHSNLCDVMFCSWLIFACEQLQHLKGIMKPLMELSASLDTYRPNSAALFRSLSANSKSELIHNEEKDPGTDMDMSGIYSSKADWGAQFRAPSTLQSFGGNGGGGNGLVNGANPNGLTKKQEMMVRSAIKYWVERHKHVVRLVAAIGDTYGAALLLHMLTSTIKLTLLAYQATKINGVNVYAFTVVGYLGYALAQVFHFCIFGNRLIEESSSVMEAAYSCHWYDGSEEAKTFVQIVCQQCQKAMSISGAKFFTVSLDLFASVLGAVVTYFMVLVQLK
The description is as above. The conditions noted are these: 20µM OLC12, 10µM tryptamine. The protocol: as §1, §2

In another assay the target is Agam\Orco+Agam\Or65 (Anopheles gambiae, UniProt Q7QCC7). Kind of assay: Antagonism of OLC12 activation of heteromeric OR in Xenopus oocytes. As to conditions: for IC50: read-out: IC 50 for inhibition of Agam\Orco+Agam\Or65 activation. The procedure:
as §1
Odorant and Orco ligand induced currents were recorded under two-electrode voltage clamp, using an automated parallel electrophysiology system (OpusExpress 6000A, Molecular Devices). Oocytes were perfused with ND96 (in mM: 96 NaCl, 2 KCl, 1 CaCl 2, 1 MgCl 2, 5 HEPES, pH 7.5). Orco ligands were prepared as 50 or 100 mM stock solutions in DMSO and then diluted into ND96 on the day of the experiment. Odorants were prepared as 100 mM stock solutions in DMSO and then diluted into ND96. Unless otherwise noted, applications were for 60 sec at a flow rate of 1.0 ml/min, with extensive washing in ND96 at 4.6 ml/min between applications. Micropipettes were filled with 3 M KCl and had resistances of 0.2–2.0 MΩ. The holding potential was -70 mV. Current responses, filtered (4-pole, Bessel, low pass) at 20 Hz (-3 db) and sampled at 100 Hz, were captured and stored using OpusXpress 1.1 software (Molecular Devices).
To screen for agonist activity, oocytes were exposed to 30 sec applications of candidate compounds with 5 min washes between applications ( Figure 2A). For the concentration-response protocol ( Table 1), applications were for 20 sec at a flow rate of 1.65 ml/min. […]
Initial analysis of electrophysiological data was done using Clampfit 9.1 software (Molecular Devices). […] Statistical significance (p<0.05) was assessed using a two-tailed unpaired t test, an F test, or a one-way analysis of variance followed by the Dunnett's post-test, as appropriate.

Like-named read-outs stand apart in the source and are kept apart here.

With `NCCc1c[nH]c2ccccc12` [tryptamine], the “inhibition of OLC12 activation of Orco” value against Agam\Orco and against Dmel\Orco was “inhibited OLC12 activation of Orco from each of these three insect species” in each case. Moreover, on Agam\Orco+Agam\Or65 (Agam\Orco+Agam\Or65, 20µM vs 100µM OLC12), the “mechanism of inhibition of OLC12 activation” value was “competitively inhibits OLC12 activation”. Moreover, the IC50 was found to be 2.9 ± 0.5 µM on Agam\Orco+Agam\Or65 (activated by 20µM OLC12) and 8.5 ± 1.1 µM on Agam\Orco+Agam\Or65 (activated by 100µM OLC12).
